{"source": "patent US20100048696A1", "about": "“AGRICULTURAL DISEASE CONTROL AGENT” (Idemitsu Kosan Co., Ltd., priority 2007, published 2010)", "key": {"[1]": {"test_system": "Erwinia carotovora var. cartovora", "experiment": "Basic test: cutting knife disinfection, blackleg pathogens", "assay_type": "cell-based", "details": "knife immersed 5 seconds"}, "[2]": {"test_system": "Clavibacter michiganense subsp. Nebraskense (ATCC27822)", "experiment": "Basic test: cutting knife disinfection, ring rot pathogens", "assay_type": "cell-based", "details": "knife immersed 5 seconds"}, "[3]": {"test_system": "Erwinia carotovora var. cartovora", "experiment": "Test using potatoes: blackleg pathogenesis after cutting with disinfected knife", "assay_type": "in vivo, potatoes Norin No. 1", "details": "for Degree of pathogenesis: knife immersed 5 seconds at 5° C., average of 5 potatoes, about two months after seeding"}, "Erwinia chrysanthemi": {"test_system": "Erwinia chrysanthemi", "experiment": "Material disinfection test", "assay_type": "cell-based", "details": "5 minutes"}, "Burkholderia plantarii": {"test_system": "Burkholderia plantarii", "experiment": "Material disinfection test", "assay_type": "cell-based", "details": "5 minutes"}, "Burkholderia glumae": {"test_system": "Burkholderia glumae", "experiment": "Material disinfection test", "assay_type": "cell-based", "details": "5 minutes"}, "Ralstonia solanacearum": {"test_system": "Ralstonia solanacearum", "assay_type": "cell-based", "details": "5 minutes"}, "Pythium ultimum": {"test_system": "Pythium ultimum", "experiment": "Material disinfection test", "assay_type": "cell-based", "details": "5 minutes"}, "Fusarium oxysporum": {"test_system": "Fusarium oxysporum", "experiment": "Material disinfection test", "assay_type": "cell-based", "details": "5 minutes"}, "Rhizoctonia solani": {"test_system": "Rhizoctonia solani", "experiment": "Material disinfection test", "assay_type": "cell-based", "details": "5 minutes"}, "Pyricularia oryzae": {"test_system": "Pyricularia oryzae", "assay_type": "cell-based", "details": "5 minutes"}, "Botrytis cinerea": {"test_system": "Botrytis cinerea", "experiment": "Material disinfection test", "assay_type": "cell-based", "details": "5 minutes"}, "[4]": {"test_system": "bacteria pathogens and filamentous fungi pathogens", "assay_type": "cell-based"}}, "note": "Read-outs that look alike come from different tables or passages of the source."}
{"smiles": "O=C(O)/C=C\\C(=O)O", "note": "[Maleic acid]", "values": [{"measurement": "sterilization of blackleg pathogens (in words)", "setting": "[1]; 2 to 10 times solutions", "result": "complete sterilization"}, {"measurement": "sterilization effect on blackleg pathogens (in words)", "setting": "[1]; 25 to 50 times solutions", "result": "high sterilization effect"}, {"measurement": "sterilization of ring rot pathogens (in words)", "setting": "[2]; 2 to 10 times solutions", "result": "complete sterilization"}, {"measurement": "sterilization effect on ring rot pathogens (in words)", "setting": "[2]; 25 to 50 times solutions", "result": "high sterilization effect"}, {"measurement": "Degree of pathogenesis", "setting": "[3]; 5 times solution", "result": 0}, {"measurement": "sterilization in test using potatoes (in words)", "setting": "[3]; 5 to 10 times solution", "result": "complete sterilization"}, {"measurement": "Degree of pathogenesis", "setting": "[3]; 10 times solution", "result": 0}, {"measurement": "sterilization effect in test using potatoes (in words)", "setting": "[3]; 50 times solution", "result": "high sterilization effect"}, {"measurement": "Degree of pathogenesis", "setting": "[3]; 50 times solution", "result": "3 (20 to less than 40%)"}, {"measurement": "Average value of viable bacteria counts on all materials examined", "setting": "Erwinia chrysanthemi; 2 times solution sprayed", "result": 0, "unit": "cfu/ml"}, {"measurement": "Average value of viable bacteria counts on all materials examined", "setting": "Erwinia chrysanthemi; 5 times solution sprayed", "result": 0, "unit": "cfu/ml"}, {"measurement": "Average value of viable bacteria counts on all materials examined", "setting": "Erwinia chrysanthemi; 25 times solution sprayed", "result": 0, "unit": "cfu/ml"}, {"measurement": "Average value of viable bacteria counts on all materials examined", "setting": "Erwinia chrysanthemi; 50 times solution sprayed", "result": 0, "unit": "cfu/ml"}, {"measurement": "Average value of viable bacteria counts on all materials examined", "setting": "Erwinia chrysanthemi; 100 times solution sprayed", "result": 0, "unit": "cfu/ml"}, {"measurement": "Average value of viable bacteria counts on all materials examined", "setting": "Erwinia chrysanthemi; 200 times solution sprayed", "result": 53, "unit": "cfu/ml"}, {"measurement": "Average value of viable bacteria counts on all materials examined", "setting": "Erwinia chrysanthemi; 500 times solution sprayed", "result": "3.5 × 10^3 cfu/ml"}, {"measurement": "Average value of viable bacteria counts on all materials examined", "setting": "Burkholderia plantarii; 2 times solution sprayed", "result": 0, "unit": "cfu/ml"}, {"measurement": "Average value of viable bacteria counts on all materials examined", "setting": "Burkholderia plantarii; 5 times solution sprayed", "result": 0, "unit": "cfu/ml"}, {"measurement": "Average value of viable bacteria counts on all materials examined", "setting": "Burkholderia plantarii; 25 times solution sprayed", "result": 0, "unit": "cfu/ml"}, {"measurement": "Average value of viable bacteria counts on all materials examined", "setting": "Burkholderia plantarii; 50 times solution sprayed", "result": 0, "unit": "cfu/ml"}, {"measurement": "Average value of viable bacteria counts on all materials examined", "setting": "Burkholderia plantarii; 100 times solution sprayed", "result": 0, "unit": "cfu/ml"}, {"measurement": "Average value of viable bacteria counts on all materials examined", "setting": "Burkholderia plantarii; 200 times solution sprayed", "result": 65, "unit": "cfu/ml"}, {"measurement": "Average value of viable bacteria counts on all materials examined", "setting": "Burkholderia plantarii; 500 times solution sprayed", "result": "1.5 × 10^2 cfu/ml"}, {"measurement": "Average value of viable bacteria counts on all materials examined", "setting": "Burkholderia glumae; 2 times solution sprayed", "result": 0, "unit": "cfu/ml"}, {"measurement": "Average value of viable bacteria counts on all materials examined", "setting": "Burkholderia glumae; 5 times solution sprayed", "result": 0, "unit": "cfu/ml"}, {"measurement": "Average value of viable bacteria counts on all materials examined", "setting": "Burkholderia glumae; 25 times solution sprayed", "result": 0, "unit": "cfu/ml"}, {"measurement": "Average value of viable bacteria counts on all materials examined", "setting": "Burkholderia glumae; 50 times solution sprayed", "result": 0, "unit": "cfu/ml"}, {"measurement": "Average value of viable bacteria counts on all materials examined", "setting": "Burkholderia glumae; 100 times solution sprayed", "result": 0, "unit": "cfu/ml"}, {"measurement": "Average value of viable bacteria counts on all materials examined", "setting": "Burkholderia glumae; 200 times solution sprayed", "result": 93, "unit": "cfu/ml"}, {"measurement": "Average value of viable bacteria counts on all materials examined", "setting": "Burkholderia glumae; 500 times solution sprayed", "result": "5.0 × 10^3 cfu/ml"}, {"measurement": "Average value of viable bacteria counts on all materials examined", "setting": "Ralstonia solanacearum; 2 times solution sprayed", "result": 0, "unit": "cfu/ml"}, {"measurement": "Average value of viable bacteria counts on all materials examined", "setting": "Ralstonia solanacearum; 5 times solution sprayed", "result": 0, "unit": "cfu/ml"}, {"measurement": "Average value of viable bacteria counts on all materials examined", "setting": "Ralstonia solanacearum; 25 times solution sprayed", "result": 0, "unit": "cfu/ml"}, {"measurement": "Average value of viable bacteria counts on all materials examined", "setting": "Ralstonia solanacearum; 50 times solution sprayed", "result": 0, "unit": "cfu/ml"}, {"measurement": "Average value of viable bacteria counts on all materials examined", "setting": "Ralstonia solanacearum; 100 times solution sprayed", "result": 0, "unit": "cfu/ml"}, {"measurement": "Average value of viable bacteria counts on all materials examined", "setting": "Ralstonia solanacearum; 200 times solution sprayed", "result": 18, "unit": "cfu/ml"}, {"measurement": "Average value of viable bacteria counts on all materials examined", "setting": "Ralstonia solanacearum; 500 times solution sprayed", "result": "1.0 × 10^2 cfu/ml"}, {"measurement": "average value of viable filamentous fungi counts on all materials examined", "setting": "Pythium ultimum; 2 times solution sprayed", "result": 0, "unit": "cfu/ml"}, {"measurement": "average value of viable filamentous fungi counts on all materials examined", "setting": "Pythium ultimum; 5 times solution sprayed", "result": 0, "unit": "cfu/ml"}, {"measurement": "average value of viable filamentous fungi counts on all materials examined", "setting": "Pythium ultimum; 25 times solution sprayed", "result": 0, "unit": "cfu/ml"}, {"measurement": "average value of viable filamentous fungi counts on all materials examined", "setting": "Pythium ultimum; 50 times solution sprayed", "result": 0, "unit": "cfu/ml"}, {"measurement": "average value of viable filamentous fungi counts on all materials examined", "setting": "Pythium ultimum; 100 times solution sprayed", "result": 0, "unit": "cfu/ml"}, {"measurement": "average value of viable filamentous fungi counts on all materials examined", "setting": "Pythium ultimum; 200 times solution sprayed", "result": 73, "unit": "cfu/ml"}, {"measurement": "average value of viable filamentous fungi counts on all materials examined", "setting": "Pythium ultimum; 500 times solution sprayed", "result": "3.1 × 10^3 cfu/ml"}, {"measurement": "average value of viable filamentous fungi counts on all materials examined", "setting": "Fusarium oxysporum; 2 times solution sprayed", "result": 0, "unit": "cfu/ml"}, {"measurement": "average value of viable filamentous fungi counts on all materials examined", "setting": "Fusarium oxysporum; 5 times solution sprayed", "result": 0, "unit": "cfu/ml"}, {"measurement": "average value of viable filamentous fungi counts on all materials examined", "setting": "Fusarium oxysporum; 25 times solution sprayed", "result": 0, "unit": "cfu/ml"}, {"measurement": "average value of viable filamentous fungi counts on all materials examined", "setting": "Fusarium oxysporum; 50 times solution sprayed", "result": 0, "unit": "cfu/ml"}, {"measurement": "average value of viable filamentous fungi counts on all materials examined", "setting": "Fusarium oxysporum; 100 times solution sprayed", "result": 0, "unit": "cfu/ml"}, {"measurement": "average value of viable filamentous fungi counts on all materials examined", "setting": "Fusarium oxysporum; 200 times solution sprayed", "result": "1.1 × 10^2 cfu/ml"}, {"measurement": "average value of viable filamentous fungi counts on all materials examined", "setting": "Fusarium oxysporum; 500 times solution sprayed", "result": "7.8 × 10^2 cfu/ml"}, {"measurement": "average value of viable filamentous fungi counts on all materials examined", "setting": "Rhizoctonia solani; 2 times solution sprayed", "result": 0, "unit": "cfu/ml"}, {"measurement": "average value of viable filamentous fungi counts on all materials examined", "setting": "Rhizoctonia solani; 5 times solution sprayed", "result": 0, "unit": "cfu/ml"}, {"measurement": "average value of viable filamentous fungi counts on all materials examined", "setting": "Rhizoctonia solani; 25 times solution sprayed", "result": 0, "unit": "cfu/ml"}, {"measurement": "average value of viable filamentous fungi counts on all materials examined", "setting": "Rhizoctonia solani; 50 times solution sprayed", "result": 0, "unit": "cfu/ml"}, {"measurement": "average value of viable filamentous fungi counts on all materials examined", "setting": "Rhizoctonia solani; 100 times solution sprayed", "result": 0, "unit": "cfu/ml"}, {"measurement": "average value of viable filamentous fungi counts on all materials examined", "setting": "Rhizoctonia solani; 200 times solution sprayed", "result": "2.5 × 10^2 cfu/ml"}, {"measurement": "average value of viable filamentous fungi counts on all materials examined", "setting": "Rhizoctonia solani; 500 times solution sprayed", "result": "3.1 × 10^2 cfu/ml"}, {"measurement": "average value of viable filamentous fungi counts on all materials examined", "setting": "Pyricularia oryzae; 2 times solution sprayed", "result": 0, "unit": "cfu/ml"}, {"measurement": "average value of viable filamentous fungi counts on all materials examined", "setting": "Pyricularia oryzae; 5 times solution sprayed", "result": 0, "unit": "cfu/ml"}, {"measurement": "average value of viable filamentous fungi counts on all materials examined", "setting": "Pyricularia oryzae; 25 times solution sprayed", "result": 0, "unit": "cfu/ml"}, {"measurement": "average value of viable filamentous fungi counts on all materials examined", "setting": "Pyricularia oryzae; 50 times solution sprayed", "result": 0, "unit": "cfu/ml"}, {"measurement": "average value of viable filamentous fungi counts on all materials examined", "setting": "Pyricularia oryzae; 100 times solution sprayed", "result": 0, "unit": "cfu/ml"}, {"measurement": "average value of viable filamentous fungi counts on all materials examined", "setting": "Pyricularia oryzae; 200 times solution sprayed", "result": "1.5 × 10^2 cfu/ml"}, {"measurement": "average value of viable filamentous fungi counts on all materials examined", "setting": "Pyricularia oryzae; 500 times solution sprayed", "result": "2.7 × 10^2 cfu/ml"}, {"measurement": "average value of viable filamentous fungi counts on all materials examined", "setting": "Botrytis cinerea; 2 times solution sprayed", "result": 0, "unit": "cfu/ml"}, {"measurement": "average value of viable filamentous fungi counts on all materials examined", "setting": "Botrytis cinerea; 5 times solution sprayed", "result": 0, "unit": "cfu/ml"}, {"measurement": "average value of viable filamentous fungi counts on all materials examined", "setting": "Botrytis cinerea; 25 times solution sprayed", "result": 0, "unit": "cfu/ml"}, {"measurement": "average value of viable filamentous fungi counts on all materials examined", "setting": "Botrytis cinerea; 50 times solution sprayed", "result": 0, "unit": "cfu/ml"}, {"measurement": "average value of viable filamentous fungi counts on all materials examined", "setting": "Botrytis cinerea; 100 times solution sprayed", "result": 0, "unit": "cfu/ml"}, {"measurement": "average value of viable filamentous fungi counts on all materials examined", "setting": "Botrytis cinerea; 200 times solution sprayed", "result": "1.7 × 10^2 cfu/ml"}, {"measurement": "average value of viable filamentous fungi counts on all materials examined", "setting": "Botrytis cinerea; 500 times solution sprayed", "result": "1.0 × 10^2 cfu/ml"}, {"measurement": "sterilization in material disinfection test (in words)", "setting": "[4]", "result": "complete sterilization"}]}
